Measurements published in ChEMBL document CHEMBL4011590, “Structure-activity relationship studies on 3,5-dinitrophenyl tetrazoles as antitubercular agents” (Eur J Med Chem, 2017).
Converted amounts (≈) assume the structure as drawn.

What was measured:
Enterococcus sp. [1] = assay: Antibacterial activity against Enterococcus sp. HK14365/08 after 48 hrs by broth microdilution method; format: functional; details: HK14365/08, 48 h
Trichosporon asahii [2] = assay: Antifungal activity against Trichosporon asahii 1188 after 24 hrs by broth microdilution method; format: functional; details: Trichosporon asahii, 1188, 24 h
Nakaseomyces glabratus [3] = assay: Antifungal activity against Candida glabrata 20/I after 24 hrs by broth microdilution method; format: functional
Candida tropicalis [4] = assay: Antifungal activity against Candida tropicalis 156 after 24 hrs by broth microdilution method; format: functional; details: Candida tropicalis, 156, 24 h
Pichia kudriavzevii [5] = assay: Antifungal activity against Candida krusei E28 after 24 hrs by broth microdilution method; format: functional; details: E28, 24 h
CHO-K1 = assay: Cytotoxicity against CHOK1 cells after 24 hrs by MTT assay; format: cell-based; details: Cricetulus griseus, CHO-K1, 24 h
Aspergillus fumigatus [6] = assay: Antifungal activity against Aspergillus fumigatus 231 after 48 hrs by broth microdilution method; format: functional; details: Aspergillus fumigatus, 231, 48 h
Klebsiella pneumoniae [7] = assay: Antibacterial activity against extended spectrum beta-lactamase producing Klebsiella pneumoniae HK14368/08 after 24 hrs by broth microdilution method; format: functional; details: HK14368/08, 24 h
Mycobacterium kansasii [8] = assay: Antimycobacterial activity against Mycobacterium kansasii CNCTC My 235/80 after 21 days by micromethod; format: functional; details: CNCTC My 235/80, 504 h
Pseudomonas aeruginosa [9] = assay: Antibacterial activity against Pseudomonas aeruginosa ATCC 9027 after 24 hrs by broth microdilution method; format: functional; details: ATCC 9027, 24 h
Mycobacterium kansasii [10] = assay: Antimycobacterial activity against Mycobacterium kansasii isolate 6509/96 after 21 days by micromethod; format: functional; details: isolate 6509/96, 504 h
Staphylococcus aureus [11] = assay: Antibacterial activity against methicillin-resistant Staphylococcus aureus HK5996/08 after 48 hrs by broth microdilution method; format: functional; details: HK5996/08, 48 h
Mycobacterium avium [12] = assay: Antimycobacterial activity against Mycobacterium avium CNCTC My 330/80 after 21 days by micromethod; format: functional; details: CNCTC My 330/80, 504 h
Staphylococcus aureus [13] = assay: Antibacterial activity against methicillin-resistant Staphylococcus aureus HK5996/08 after 24 hrs by broth microdilution method; format: functional; details: HK5996/08, 24 h
[14] = test system: Trichophyton mentagrophytes; assay: Antifungal activity against Trichophyton mentagrophytes 445 after 72 hrs by broth microdilution method; format: functional; details: Trichophyton mentagrophytes, 445, 72 h
Candida albicans [15] = assay: Antifungal activity against Candida albicans ATCC 44859 after 24 hrs by broth microdilution method; format: functional; details: ATCC 44859, 24 h
Lichtheimia corymbifera [16] = assay: Antifungal activity against Absidia corymbifera 272 after 48 hrs by broth microdilution method; format: functional; details: Lichtheimia corymbifera, 272, 48 h
Staphylococcus aureus [17] = assay: Antibacterial activity against Staphylococcus aureus ATCC 6538 after 24 hrs by broth microdilution method; format: functional; details: ATCC 6538, 24 h
Aspergillus fumigatus [18] = assay: Antifungal activity against Aspergillus fumigatus 231 after 24 hrs by broth microdilution method; format: functional; details: Aspergillus fumigatus, 231, 24 h
Escherichia coli [19] = assay: Antibacterial activity against Escherichia coli ATCC 8739 after 24 hrs by broth microdilution method; format: functional; details: ATCC 8739, 24 h
Pichia kudriavzevii [20] = assay: Antifungal activity against Candida krusei E28 after 48 hrs by broth microdilution method; format: functional; details: E28, 48 h
Mycobacterium kansasii [21] = assay: Antimycobacterial activity against Mycobacterium kansasii isolate 6509/96 after 7 days by micromethod; format: functional; details: isolate 6509/96, 168 h
Escherichia coli [22] = assay: Antibacterial activity against Escherichia coli ATCC 8739 after 48 hrs by broth microdilution method; format: functional; details: ATCC 8739, 48 h
[23] = test system: Staphylococcus epidermidis; assay: Antibacterial activity against Staphylococcus epidermidis HK6966/08 after 24 hrs by broth microdilution method; format: functional; details: HK6966/08, 24 h
Lichtheimia corymbifera [24] = assay: Antifungal activity against Absidia corymbifera 272 after 24 hrs by broth microdilution method; format: functional; details: Lichtheimia corymbifera, 272, 24 h
Pseudomonas aeruginosa [25] = assay: Antibacterial activity against Pseudomonas aeruginosa ATCC 9027 after 48 hrs by broth microdilution method; format: functional; details: ATCC 9027, 48 h
[26] = test system: Mycobacterium tuberculosis; assay: Antimycobacterial activity against Mycobacterium tuberculosis H37Rv CNCTC My 331/88 after 14 days by micromethod; format: functional; details: H37Rv CNCTC My 331/88, 336 h
Candida tropicalis [27] = assay: Antifungal activity against Candida tropicalis 156 after 48 hrs by broth microdilution method; format: functional; details: Candida tropicalis, 156, 48 h
Mycobacterium kansasii [28] = assay: Antimycobacterial activity against Mycobacterium kansasii isolate 6509/96 after 14 days by micromethod; format: functional; details: isolate 6509/96, 336 h
Mycobacterium kansasii [29] = assay: Antimycobacterial activity against Mycobacterium kansasii CNCTC My 235/80 after 7 days by micromethod; format: functional; details: CNCTC My 235/80, 168 h
Klebsiella pneumoniae [30] = assay: Antibacterial activity against extended spectrum beta-lactamase producing Klebsiella pneumoniae HK14368/08 after 48 hrs by broth microdilution method; format: functional; details: HK14368/08, 48 h
Klebsiella pneumoniae [31] = assay: Antibacterial activity against Klebsiella pneumoniae HK11750/08 after 24 hrs by broth microdilution method; format: functional; details: HK11750/08, 24 h
Candida albicans [32] = assay: Antifungal activity against Candida albicans ATCC 44859 after 48 hrs by broth microdilution method; format: functional; details: ATCC 44859, 48 h
Mycobacterium avium [33] = assay: Antimycobacterial activity against Mycobacterium avium CNCTC My 330/80 after 14 days by micromethod; format: functional; details: CNCTC My 330/80, 336 h
Mycobacterium kansasii [34] = assay: Antimycobacterial activity against Mycobacterium kansasii CNCTC My 235/80 after 14 days by micromethod; format: functional; details: CNCTC My 235/80, 336 h
Enterococcus sp. [35] = assay: Antibacterial activity against Enterococcus sp. HK14365/08 after 24 hrs by broth microdilution method; format: functional; details: HK14365/08, 24 h
[36] = test system: Trichophyton mentagrophytes; assay: Antifungal activity against Trichophyton mentagrophytes 445 after 120 hrs by broth microdilution method; format: functional; details: Trichophyton mentagrophytes, 445, 120 h
[37] = test system: Staphylococcus epidermidis; assay: Antibacterial activity against Staphylococcus epidermidis HK6966/08 after 48 hrs by broth microdilution method; format: functional; details: HK6966/08, 48 h
Trichosporon asahii [38] = assay: Antifungal activity against Trichosporon asahii 1188 after 48 hrs by broth microdilution method; format: functional; details: Trichosporon asahii, 1188, 48 h
Staphylococcus aureus [39] = assay: Antibacterial activity against Staphylococcus aureus ATCC 6538 after 48 hrs by broth microdilution method; format: functional; details: ATCC 6538, 48 h
[40] = test system: Mycobacterium tuberculosis; assay: Antimycobacterial activity against Mycobacterium tuberculosis H37Rv CNCTC My 331/88 after 21 days by micromethod; format: functional; details: H37Rv CNCTC My 331/88, 504 h
Nakaseomyces glabratus [41] = assay: Antifungal activity against Candida glabrata 20/I after 48 hrs by broth microdilution method; format: functional
Klebsiella pneumoniae [42] = assay: Antibacterial activity against Klebsiella pneumoniae HK11750/08 after 48 hrs by broth microdilution method; format: functional; details: HK11750/08, 48 h

O=[N+]([O-])c1cc(-c2nnn(Cc3cccc(Br)c3)n2)cc([N+](=O)[O-])c1
MIC (Enterococcus sp. [1]): > 500 µM
MIC (Trichosporon asahii [2]): > 500 µM
MIC (Nakaseomyces glabratus [3]): > 500 µM
MIC (Candida tropicalis [4]): > 500 µM
MIC (Pichia kudriavzevii [5]): > 500 µM
IC50 (CHO-K1): 29 µM
MIC (Aspergillus fumigatus [6]): > 500 µM
MIC (Klebsiella pneumoniae [7]): > 500 µM
MIC99 (Mycobacterium kansasii [8]): 2 µM (≈ 0.81 µg/mL)
MIC (Pseudomonas aeruginosa [9]): > 500 µM
MIC99 (Mycobacterium kansasii [10]): 2 µM (≈ 0.81 µg/mL)
MIC (Staphylococcus aureus [11]): > 500 µM
MIC99 (Mycobacterium avium [12]): 8 µM (≈ 3.24 µg/mL)
MIC (Staphylococcus aureus [13]): > 500 µM
MIC [14]: > 500 µM
MIC (Candida albicans [15]): > 500 µM
MIC (Lichtheimia corymbifera [16]): > 500 µM
MIC (Staphylococcus aureus [17]): 250 µM (≈ 101 µg/mL)
MIC (Aspergillus fumigatus [18]): > 500 µM
MIC (Escherichia coli [19]): > 500 µM
MIC (Pichia kudriavzevii [20]): > 500 µM
MIC99 (Mycobacterium kansasii [21]): 0.5 µM (≈ 0.203 µg/mL)
MIC (Escherichia coli [22]): > 500 µM
MIC [23]: 250 µM (≈ 101 µg/mL)
MIC (Lichtheimia corymbifera [24]): > 500 µM
MIC (Pseudomonas aeruginosa [25]): > 500 µM
MIC99 [26]: 0.25 µM (≈ 0.101 µg/mL)
MIC (Candida tropicalis [27]): > 500 µM
MIC99 (Mycobacterium kansasii [28]): 1 µM (≈ 0.405 µg/mL)
MIC99 (Mycobacterium kansasii [29]): 1 µM (≈ 0.405 µg/mL)
MIC (Klebsiella pneumoniae [30]): > 500 µM
MIC (Klebsiella pneumoniae [31]): > 500 µM
MIC (Candida albicans [32]): > 500 µM
MIC99 (Mycobacterium avium [33]): 4 µM (≈ 1.62 µg/mL)
MIC99 (Mycobacterium kansasii [34]): 2 µM (≈ 0.81 µg/mL)
MIC (Enterococcus sp. [35]): > 500 µM
MIC [36]: > 500 µM
MIC [37]: 250 µM (≈ 101 µg/mL)
MIC (Trichosporon asahii [38]): > 500 µM
MIC (Staphylococcus aureus [39]): 250 µM (≈ 101 µg/mL)
MIC99 [40]: 0.25 µM (≈ 0.101 µg/mL)
MIC (Nakaseomyces glabratus [41]): > 500 µM
MIC (Klebsiella pneumoniae [42]): > 500 µM

COc1cccc(-n2nnnc2SCn2nnc(-c3cc([N+](=O)[O-])cc([N+](=O)[O-])c3)n2)c1
MIC (Enterococcus sp. [1]): > 125 µM
MIC (Trichosporon asahii [2]): > 500 µM
MIC (Nakaseomyces glabratus [3]): > 500 µM
MIC (Candida tropicalis [4]): > 500 µM
MIC (Pichia kudriavzevii [5]): > 500 µM
IC50 (CHO-K1): 135 µM
MIC (Aspergillus fumigatus [6]): > 500 µM
MIC (Klebsiella pneumoniae [7]): > 125 µM
MIC99 (Mycobacterium kansasii [8]): 2 µM (≈ 0.913 µg/mL)
MIC (Pseudomonas aeruginosa [9]): > 125 µM
MIC99 (Mycobacterium kansasii [10]): 1 µM (≈ 0.456 µg/mL)
MIC (Staphylococcus aureus [11]): > 125 µM
MIC99 (Mycobacterium avium [12]): 16 µM (≈ 7.3 µg/mL)
MIC (Staphylococcus aureus [13]): > 125 µM
MIC [14]: > 500 µM
MIC (Candida albicans [15]): > 500 µM
MIC (Lichtheimia corymbifera [16]): > 500 µM
MIC (Staphylococcus aureus [17]): > 125 µM
MIC (Aspergillus fumigatus [18]): > 500 µM
MIC (Escherichia coli [19]): > 125 µM
MIC (Pichia kudriavzevii [20]): > 500 µM
MIC99 (Mycobacterium kansasii [21]): 0.5 µM (≈ 0.228 µg/mL)
MIC (Escherichia coli [22]): > 125 µM
MIC [23]: > 125 µM
MIC (Lichtheimia corymbifera [24]): > 500 µM
MIC (Pseudomonas aeruginosa [25]): > 125 µM
MIC99 [26]: 0.03 µM (≈ 0.0137 µg/mL)
MIC (Candida tropicalis [27]): > 500 µM
MIC99 (Mycobacterium kansasii [28]): 1 µM (≈ 0.456 µg/mL)
MIC99 (Mycobacterium kansasii [29]): 1 µM (≈ 0.456 µg/mL)
MIC (Klebsiella pneumoniae [30]): > 125 µM
MIC (Klebsiella pneumoniae [31]): > 125 µM
MIC (Candida albicans [32]): > 500 µM
MIC99 (Mycobacterium avium [33]): 8 µM (≈ 3.65 µg/mL)
MIC99 (Mycobacterium kansasii [34]): 1 µM (≈ 0.456 µg/mL)
MIC (Enterococcus sp. [35]): > 125 µM
MIC [36]: > 500 µM
MIC [37]: > 125 µM
MIC (Trichosporon asahii [38]): > 500 µM
MIC (Staphylococcus aureus [39]): > 125 µM
MIC99 [40]: 0.03 µM (≈ 0.0137 µg/mL)
MIC (Nakaseomyces glabratus [41]): > 500 µM
MIC (Klebsiella pneumoniae [42]): > 125 µM
